The values below come from ChEMBL document CHEMBL1154793, “The lecanindoles, nonsteroidal progestins from the terrestrial fungus Verticillium lecanii 6144” (J Nat Prod, 2009).

Assay [1] concerns the target T1, Androgen receptor (Homo sapiens) (UniProt P10275).
T1 sequence (whole entry): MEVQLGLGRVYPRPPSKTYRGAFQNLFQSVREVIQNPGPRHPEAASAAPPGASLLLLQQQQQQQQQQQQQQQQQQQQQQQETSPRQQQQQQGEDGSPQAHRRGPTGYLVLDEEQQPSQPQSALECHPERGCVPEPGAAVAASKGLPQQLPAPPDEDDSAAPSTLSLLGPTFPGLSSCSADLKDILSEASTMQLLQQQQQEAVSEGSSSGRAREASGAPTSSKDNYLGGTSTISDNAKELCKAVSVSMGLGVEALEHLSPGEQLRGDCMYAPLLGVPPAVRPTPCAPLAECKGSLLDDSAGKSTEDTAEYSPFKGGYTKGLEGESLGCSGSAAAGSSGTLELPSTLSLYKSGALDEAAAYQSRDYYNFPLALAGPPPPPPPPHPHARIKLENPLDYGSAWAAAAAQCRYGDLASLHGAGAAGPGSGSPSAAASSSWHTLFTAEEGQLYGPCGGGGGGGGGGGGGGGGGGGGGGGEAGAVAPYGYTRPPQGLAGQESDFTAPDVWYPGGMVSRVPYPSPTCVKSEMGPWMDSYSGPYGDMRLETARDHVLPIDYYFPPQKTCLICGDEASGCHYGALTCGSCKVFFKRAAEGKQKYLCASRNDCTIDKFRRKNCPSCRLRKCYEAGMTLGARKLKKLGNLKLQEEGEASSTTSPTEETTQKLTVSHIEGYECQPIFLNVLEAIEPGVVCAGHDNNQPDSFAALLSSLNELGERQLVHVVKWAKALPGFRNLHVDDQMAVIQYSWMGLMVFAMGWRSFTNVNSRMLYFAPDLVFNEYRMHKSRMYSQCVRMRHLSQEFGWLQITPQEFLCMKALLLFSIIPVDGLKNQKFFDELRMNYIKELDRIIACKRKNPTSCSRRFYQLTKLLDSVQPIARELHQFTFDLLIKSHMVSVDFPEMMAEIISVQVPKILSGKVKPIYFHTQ
Put plainly: Antagonist activity at androgen receptor ligand binding domain expressed in african green monkey COS7 cells co-transfected with Gal4-LBD by luciferase reporter gene assay relative to control. The assay is classed as cell-based. Conditions: COS-7; call rule not given here. Also noted: scale not given: the % may be the effect or the level left. (In general: A reporter such as luciferase makes a cellular process visible.)

Assay [2] concerns the target T2, Glucocorticoid receptor (Homo sapiens, UniProt P04150).
T2 sequence (P04150 whole entry): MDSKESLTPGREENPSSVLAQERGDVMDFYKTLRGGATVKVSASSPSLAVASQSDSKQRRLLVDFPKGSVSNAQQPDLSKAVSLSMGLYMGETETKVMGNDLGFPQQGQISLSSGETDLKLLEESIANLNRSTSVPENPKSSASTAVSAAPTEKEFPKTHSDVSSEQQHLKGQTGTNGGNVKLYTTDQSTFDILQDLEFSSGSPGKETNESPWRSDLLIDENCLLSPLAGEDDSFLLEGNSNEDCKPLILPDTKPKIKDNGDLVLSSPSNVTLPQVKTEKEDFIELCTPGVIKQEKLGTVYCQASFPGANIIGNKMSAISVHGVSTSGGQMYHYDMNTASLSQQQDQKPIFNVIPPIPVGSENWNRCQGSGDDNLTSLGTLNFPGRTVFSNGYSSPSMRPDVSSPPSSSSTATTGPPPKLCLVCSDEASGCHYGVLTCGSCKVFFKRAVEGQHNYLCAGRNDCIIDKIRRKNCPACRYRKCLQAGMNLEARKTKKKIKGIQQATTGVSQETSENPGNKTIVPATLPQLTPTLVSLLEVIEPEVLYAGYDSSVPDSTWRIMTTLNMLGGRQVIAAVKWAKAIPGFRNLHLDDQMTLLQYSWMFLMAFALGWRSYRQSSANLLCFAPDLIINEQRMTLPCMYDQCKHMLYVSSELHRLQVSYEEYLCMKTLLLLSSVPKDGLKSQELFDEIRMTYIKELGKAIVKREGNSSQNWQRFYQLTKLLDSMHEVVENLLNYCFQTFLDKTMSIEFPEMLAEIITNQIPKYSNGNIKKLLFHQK
Put plainly: Agonist activity at glucocorticoid receptor ligand binding domain expressed in african green monkey COS7 cells co-transfected with Gal4-LBD up to 10 uM by luciferase reporter gene assay. The assay is classed as cell-based. Conditions: cos-7.

Assay [3] deals with T3, Estrogen receptor (Homo sapiens) (UniProt P03372).
T3 sequence (whole entry): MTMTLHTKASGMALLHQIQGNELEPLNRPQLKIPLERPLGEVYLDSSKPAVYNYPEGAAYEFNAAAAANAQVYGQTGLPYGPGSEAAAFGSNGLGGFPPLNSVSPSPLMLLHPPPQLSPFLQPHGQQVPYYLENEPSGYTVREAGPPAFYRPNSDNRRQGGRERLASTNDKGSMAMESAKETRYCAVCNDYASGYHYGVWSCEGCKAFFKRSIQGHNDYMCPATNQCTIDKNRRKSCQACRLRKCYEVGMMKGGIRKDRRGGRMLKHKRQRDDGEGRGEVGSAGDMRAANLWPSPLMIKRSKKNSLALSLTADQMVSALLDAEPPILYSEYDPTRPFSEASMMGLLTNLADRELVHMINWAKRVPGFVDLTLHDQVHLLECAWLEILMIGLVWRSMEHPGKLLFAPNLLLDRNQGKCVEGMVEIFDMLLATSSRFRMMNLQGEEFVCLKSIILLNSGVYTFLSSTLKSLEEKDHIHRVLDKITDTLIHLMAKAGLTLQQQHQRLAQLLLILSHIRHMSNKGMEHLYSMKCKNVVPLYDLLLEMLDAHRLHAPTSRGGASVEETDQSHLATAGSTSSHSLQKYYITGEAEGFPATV
The assay is described as follows: Agonist activity at estrogen receptor alpha ligand binding domain expressed in african green monkey COS7 cells co-transfected with Gal4-LBD by luciferase reporter gene assay relative to control. The assay is classed as cell-based. As to conditions: COS-7.

Assay [4] addresses Estrogen receptor beta (Homo sapiens, UniProt Q92731).
Description: Antagonist activity at estrogen receptor beta ligand binding domain expressed in african green monkey COS7 cells co-transfected with Gal4-LBD by luciferase reporter gene assay
The target in assay [5] is T4, Androgen receptor (Homo sapiens, UniProt P10275).
T4 sequence (P10275 whole entry): T1 sequence (whole entry)

By IC50 is commonly meant the concentration at which inhibition is half-maximal.

Chain of Estrogen receptor beta (Q92731 whole entry): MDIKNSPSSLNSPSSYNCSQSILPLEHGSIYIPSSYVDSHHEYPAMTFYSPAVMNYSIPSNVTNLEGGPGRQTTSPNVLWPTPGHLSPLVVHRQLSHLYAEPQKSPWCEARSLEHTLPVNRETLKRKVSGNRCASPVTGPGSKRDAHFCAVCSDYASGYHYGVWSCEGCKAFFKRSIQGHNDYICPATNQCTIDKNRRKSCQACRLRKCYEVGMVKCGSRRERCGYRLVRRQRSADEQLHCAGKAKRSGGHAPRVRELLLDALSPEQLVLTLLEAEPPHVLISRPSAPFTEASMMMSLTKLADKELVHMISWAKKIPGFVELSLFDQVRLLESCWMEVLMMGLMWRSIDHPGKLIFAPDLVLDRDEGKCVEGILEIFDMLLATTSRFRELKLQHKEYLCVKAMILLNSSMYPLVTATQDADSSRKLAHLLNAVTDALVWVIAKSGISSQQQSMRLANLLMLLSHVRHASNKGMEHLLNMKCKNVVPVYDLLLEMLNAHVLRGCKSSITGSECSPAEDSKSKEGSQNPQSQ

As for `CC1(C)C(=O)CC[C@]2(C)[C@@]3(C)c4[nH]c5ccccc5c4C[C@@H]3CC[C@@]12O` [LECANINDOLE B], the Activity in assay [1] is 32%; in assay [3], 8%. Besides, the EC50 entry in assay [2] was “Not Active”. Also, the IC50 in assay [4] and in assay [5] was greater than 10 µM each time.

As to `CC1(C)[C@H](O)CC[C@]2(C)[C@@]3(C)c4[nH]c5ccccc5c4C[C@@H]3CC[C@@]12O` [LECANINDOLE D], the Activity in assay [1] is 41%; in assay [3], 35%. Moreover, the EC50 entry in assay [2] is listed as “Not Active”. Moreover, the IC50 in assay [4] was greater than 3 µM; in assay [5] it was greater than 10 µM.
